Data: PMC5084075 (ACS Central Science, 2016)
pIC50: −log10 of the molar value. Read-outs that look alike come from different tables or passages of the source.

How the values were obtained:
[1] = tested on: Plasmodium falciparum Pfal (strain not named in column head); test: microbe, parasite or virus in culture; parameters: asexual blood stage P. falciparum whole-cell growth inhibition
Description: To confirm the promise of the two starting points OSM-S-5 and -6, they were evaluated against 3D7 (drug-sensitive) and K1 (chloroquine resistant) strains of Plasmodium falciparum in a whole cell assay and against HEK-293 cells as a cytotoxicity marker (Table SB1, Biological Protocols; tables with the prefix “SB” may be found in the Supporting Information). Biological data may be browsed in a static data set taken as a snapshot for this paper (Data Sets S1 (Excel), S2 (SDF)), online in a database constructed through periodic batch uploads,[68] or in a “living database” to which may be added future data;[69] the latter may be visualized in a web browser[70] using an open source system that was recently deployed in the Wikipedia Chemical Structure Explorer,[71] or the data may be downloaded and visualized offline with proprietary (Figure S4)[72] or open source (Figure S5)[73] tools). The evaluation was performed in three different institutions using different assays and widely employed controls; controls are important to assess reproducibility and interassay variability[74] but also to minimize possible bias in evaluating compounds where there are pre-existing data from other researchers already in the public domain (Figure S6).[75]

in vitro [2] = test: in vitro; parameters: metabolic stability in human liver microsomes, LC-MS, NADPH, 0.4 mg/mL protein; conditions: liver microsomes, human liver microsomes
Description: (§1) The two original GSK hits (OSM-S-5 and -6) and six NN compounds were evaluated for their kinetic solubility in phosphate buffer and their metabolic stability in human liver microsomes (Table SB5, Data Sets S20 and S21).

in vitro [3] = test: in vitro; parameters: metabolic stability in mouse liver microsomes, LC-MS, NADPH, 0.4 mg/mL protein; conditions: liver microsomes, mouse liver microsomes
Description: as §1

[4] = read-out: 0.4 / CLint, in vitro / (mL/min/mg protein)
[5] = read-out: Protein Conc. (mg/mL): / Degradation half-life /

Nc1ncnc2cc(-c3cccc(S(N)(=O)=O)c3)sc12 [OSM-S-106]
pIC50 [1]: 7.44
microsomal CLint (in vitro [2]; [4]): < 0.007 mL/min/mg
half-life (in vitro [2]; [5]): > 247 min
microsomal CLint (in vitro [3]; [4]): 0.0471 mL/min/mg
half-life (in vitro [3]; [5]): 36.8 min
